The test system of data set [1] is human MCF-7 cells. Kind of data set: Visually scored toxicity of NAC-MTN / NAC-DOX at fixed loading (Example 3). In kind it is cell-based. The note with it: 5.1% drug loading, 16 hour incubation. Here is the method:
Toxicity of NAC-MTN or NAC-DOX, at 50, 16.9, 5.6, and 1.9 ug/ml final drug concentration and 5.1 % drug loading in human MCF-7 cells. Sample A: 15 mg of HSDNA (EX031804A) was combined with 0.76 mg MTN(mw 517.4) or (sample B) 0.76 mg DOX (mw 579.99) to give 152 ug/ml final drug and 5.1% loading in 5 ml final vol. Samples C, D were MTN, or DOX only controls at equivalent final [drug] without HSDNA. Sample E was HSDNA, no drug and sample F was H2O only. MCF-7 cells were trypsinized and plated out previously. Triplicate samples were diluted 0.1 ml in 0.2 ml 1× media to give 3× fold serial dilution in 0.2 ml final. After 16 hour incubation the cells were visually inspected for signs of toxicity. Toxicity was scored as the following: 50%=one half all cells rounded, un-adhered or crenated.

Data set [2] can be described thus: Stability of NAC-DOX complex in hank's buffered saline (HBSS) at pH 7. The class given is physicochemical. Here is the method:
The NAC-DOX complex was tested for stability in hank's buffered saline (HBSS) at pH 7.

Data set [3] deals with MCF7 cells. The data set is described as follows: Drug loading vs toxicity at fixed [drug], MTT viability assay (Example 4). The class given is cell-based, human. The note with it: Drug only, without carrier; 0.103 mM DOX; 72 hours. Here is the method:
FIG. 1. […] NAC-MTN or NAC-DOX were prepared at different weight:weight % of drug:nucleic acid and incubated in cells. For each sample and corresponding % loading, the total drug was held constant at 0.058 mM MTN or 0.1 mM DOX. After incubation in cells, cell viability was assayed via mitochondrial dehydrogenase activity against 3-[4,5-dimethylthiazol-2-yl]-2,5-diphenyl tetrazolium bromide (MTT) and reported as % toxicity relative to untreated cells.
Mitoxantrone (MTN, Sigma Aldrich) and Doxorubicin HCl (DOX) were diluted in HBSS to 1 mg/ml final. DNA, from degraded herring sperm DNA <40 bp (HSDNA, Sigma Aldrich), was prepared in water at 10 mg/ml. The drug was diluted in water or HBSS first, followed by addition of the DNA, in order to prevent precipitation. Precipitation of drug was especially a concern at 40% loading of MTN, which is the loading limit for HSDNA (degraded) and so the DNA is added slowly to the diluted MTN (the reverse addition leads to precipitation). All NAC-MTN formulation stocks were prepared at 0.15 mg/ml final MTN, and different concentration of DNA in order to give 15, 25, and 35.7% final drug loading w/w % of MTN/DNA in 0.5 ml final volume. All NAC-DOX formulations were prepared at 0.3 mg/ml final DOX, and either 5, 10, or 15% loaded drug weight/weight % of DOX/DNA in 0.5 ml final volume. […]
(Tetrazolium dyes change colour on reduction, which living cells bring about.)

The conditions of data set [4]: after 5 days; cited from earlier work.
Data set [5] is described as follows: Dipyridamole precipitation assay, supernatant absorbance A410 (Example 6). The class given is physicochemical. Here is the method: Similar results were obtained for dipyridamole (DPA). Dipyridamole is a coronary vasodilator and functions primarily to reduce platelet adhesion and aggregation. […] Dipyridamole for intravenous injection is given as a sodium chloride or dextrose injection with 5 mg of DPA, 50 mg PEG600, 2 mg tartaric acid, and water at pH 2.7. Dipyridamole is readily soluble in acidic solution, however at higher pH it can precipitate. […] Furthermore, the nucleic acid targeting of dipyridamole can provide unexpected therapeutic benefits by enhancing its accumulation in specific areas of the body.
Dipyridamole (DPA, m.w. 504.6) was prepared as 10.27 mM […] solution in water acidified with HCl. DNA was from HSDNA 428A) 10 mg/ml in H2O prev. heated to 80C.
Prepared samples 1-3 by combining 25 ul of DPA and 0.2 ml DNA to give a turbid solution. Added 7 ul of 1M HCl to clarify, followed by 0.1 ml of 1M potassium phosphate buffer (KP) pH7. Repeated for samples 4-6 and replace DNA with water. […] Read absorbance of 0.3 ml supernatant at A410. Higher values corresponded to more drug solubilized.

Data set [6] in a line: Paclitaxel solubilization by NAC, turbidity OD410 (Example 8). The note with it: formulation with a nucleic acid. In kind it is physicochemical.
Method: Solubility enhancement of paclitaxel by NAC. Aqueous paclitaxel solutions were prepared with or without DNA, sonicated, stored at room temperature for several hours, and then centrifuged. The pellets were resuspended in 50% ethanol and the precipitated paclitaxel was quantified using a standard absorbance curve at 230 nm. The total percentage of solubilized paclitaxel was calculated using %=100× (1-assy mM)/expected mM.
Materials: Paclitaxel 10.0 mg/ml (0.0118M, m.w. 853.92) in 80% ETOH. HSDNA (herring sperm degraded DNA 428A, Sigma-Aldrich) 10 mg/ml pH7 HSGDNA (genomic, Promega mw range 100 bp-3000 bp) 10 mg/ml. […] 1M potassium phosphate buffer pH5.
Aqueous paclitaxel solutions were prepared by combining 10 ul (0.01 ml) of paclitaxel stock (11.8 mM) with 2.0 ml H2O containing water only, HSGDNA, HSDNA, RNA, or HSDNA/pPEGPEI2K as indicated in the table. Samples were sonicated 3 min. with Branson Sonifier 450 @40% duty, at #3 output level. In 10 mM potassium phosphate pH5.
Let solutions stand 30 min, and read turbidity of 0.3 ml at A410 on the Synergy HT1. Samples were 10 min @2500 rpm on Beckman Allegra21R. The pellet was resuspended in 1.5 ml of 50% ETOH and OD230 nm was taken of a 0.3 ml sample in a Falcon UV clear plate on Synergy HT1. Prepared paclitaxel standard curve, 10 ul of 9.81 mM in 1 ml 50% ETOH was diluted 2×, serially in 5 vials at 0.5 ml final vol. […]
The conditions of data set [7]: physiological conditions; cited from earlier work.

Values joined by “and” are separate entries in the source; they are usually repeats but may differ in a detail not shown here. Identical values can stand only once.

As to `O=C1c2c(O)ccc(O)c2C(=O)c2c(NCCNCCO)ccc(NCCNCCO)c21` [C, mitoxantrone], the “Toxicity (visual score)” value was 90% in data set [1] (5.6 ug/ml final drug), 100% in data set [1] (17 ug/ml final drug), 100% in data set [1] (50 ug/ml final drug) and 20% in data set [1] (1 .9 ug/ml final drug).

For `COc1cccc2c1C(=O)c1c(O)c3c(c(O)c1C2=O)C[C@@](O)(C(=O)CO)C[C@@H]3O[C@H]1C[C@H](N)[C@H](O)[C@H](C)O1` [DOX, doxorubicin], in data set [1] (17 ug/ml final drug), the “Toxicity (visual score)” value was 80-90%. In data set [2], the “stability in hank's buffered saline (HBSS) at pH 7” value is listed as “became unstable at pH 7”. In data set [3], the “% Tox” value was 67%. Further, in data set [4], the “administered drug recovered in urine” value was 4-5%.

Take `OCCN(CCO)c1nc(N2CCCCC2)c2nc(N(CCO)CCO)nc(N3CCCCC3)c2n1` [DPA, dipyridamole]: the stability against precipitation result in data set [5] (formulated with the nucleic acid carrier, aqueous solutions at pH 7) is on record as “stabilized dipyridamole against precipitation”. Besides, the A410 of supernatant in data set [5] (potassium phosphate buffer pH7, 16 hours, higher = more drug solubilized, replicate samples) is 0.388 and 0.396 and 0.401.

Turning to `COc1cccc2c1C(=O)c1c(O)c3c(c(O)c1C2=O)C[C@@](O)(C(=O)CO)C[C@@H]3O[C@H]1C[C@H](N)[C@H](O)[C@H](C)O1` [Sample D, doxorubicin], the “Toxicity (visual score)” value is given as 20% in data set [1] (5.6 ug/ml final drug), 80% in data set [1] (17 ug/ml final drug), 100% in data set [1] (50 ug/ml final drug) and 10% in data set [1] (1 .9 ug/ml final drug).

`CC(=O)O[C@H]1C(=O)[C@@]2(C)[C@H]([C@H](OC(=O)c3ccccc3)[C@]3(O)C[C@H](OC(=O)[C@H](O)[C@@H](NC(=O)c4ccccc4)c4ccccc4)C(C)=C1C3(C)C)[C@]1(OC(C)=O)CO[C@@H]1C[C@@H]2O` [paclitaxel]: the “enhancement of solubility of paclitaxel compared with water alone” value in data set [6] is no more than 200%.

For the molecule “Mylotarg: mAB-calcheamicin conjugate with hydrazone linker”, the “drug existing in free form” value in data set [7] is reported as “approximately 50%”.

(Values after US20070225213A1, “Nucleic acid carriers for delivery of therapeutic agents” (priority 2006, published 2007).)
